The source made the active and inactive calls. No cut-off for these calls is given here.
How the values were obtained:
Vaccinia virus WR [1] = assay: Antiviral activity against Vaccinia virus WR ATCC VR-1354 infected through percutaneous route in BALB/c mouse assessed as protection against weight loss at 100 mg/kg, po qd for 5 to 14 days measured on day 8; assay type: functional
Vaccinia virus WR [2] = assay: Antiviral activity against Vaccinia virus WR ATCC VR-1354 infected through percutaneous route in BALB/c mouse assessed as inhibition of virus dissemination in spleen at 100 mg/kg, po qd for 1 day by RT-PCR analysis relative to control; assay type: functional
Vaccinia virus WR [3] = assay: Antiviral activity against Vaccinia virus WR ATCC VR-1354 infected through subcutaneous route in BALB/c mouse assessed as reduction of viral load in lung at 100 mg/kg, po qd measured after 3 to 5 days postinfection by RT-PCR analysis relative to control; assay type: functional
Vaccinia virus WR [4] = assay: Antiviral activity against Vaccinia virus WR ATCC VR-1354 infected through percutaneous route in BALB/c mouse assessed as reduction of viral load in blood at 100 mg/kg, po qd measured after 7 days postinfection by RT-PCR analysis relative to control; assay type: functional, organism-based; set-up: dose 100 mg/kg
Vaccinia virus WR [5] = assay: Antiviral activity against Vaccinia virus WR ATCC VR-1354 infected through intraperitoneal route in BALB/c mouse assessed as protection against virus-induced satellite lesion formation on tails at 100 mg/kg, po qd measured after 6 days postinfection; assay type: functional, organism-based; set-up: dose 100 mg/kg
Vaccinia virus WR [6] = assay: Antiviral activity against Vaccinia virus WR ATCC VR-1354 infected through subcutaneous route in BALB/c mouse assessed as protection against virus-induced conjunctivitis in mouse eyes at 100 mg/kg, po qd measured after 6 days postinfection; assay type: functional, organism-based; set-up: dose 100 mg/kg
Vaccinia virus WR [7] = assay: Antiviral activity against Vaccinia virus WR ATCC VR-1354 infected through percutaneous route in BALB/c mouse assessed as protection against virus-induced satellite lesion formation on tails at 100 mg/kg, po qd measured after 6 days postinfection; assay type: functional, organism-based; set-up: dose 100 mg/kg
Vaccinia virus WR [8] = assay: Antiviral activity against Vaccinia virus WR ATCC VR-1354 infected through percutaneous route in BALB/c mouse assessed as reduction of viral load in lungs at 100 mg/kg, po qd measured after 5 days postinfection by RT-PCR analysis relative to control; assay type: functional
Vaccinia virus WR [9] = assay: Antiviral activity against Vaccinia virus WR ATCC VR-1354 infected through percutaneous route in BALB/c mouse assessed as reduction of viral load in brain at 100 mg/kg, po qd measured after 5 days postinfection by RT-PCR analysis relative to control; assay type: functional
Vaccinia virus WR [10] = assay: Antiviral activity against Vaccinia virus WR ATCC VR-1354 infected through intraperitoneal route in BALB/c mouse assessed as reduction of viral load in lung at 100 mg/kg, po qd measured after 3 days postinfection by RT-PCR analysis relative to control; assay type: functional, organism-based; set-up: dose 100 mg/kg
Vaccinia virus WR [11] = assay: Antiviral activity against Vaccinia virus WR ATCC VR-1354 infected through intraperitoneal route in BALB/c mouse assessed as protection against virus-induced systemic disease symptoms at 100 mg/kg, po qd measured after 9 days postinfection; assay type: functional, organism-based; set-up: dose 100 mg/kg
Vaccinia virus WR [12] = assay: Antiviral activity against Vaccinia virus WR ATCC VR-1354 infected through percutaneous route in BALB/c mouse assessed as inhibition of virus dissemination in liver at 100 mg/kg, po qd for 1 day by RT-PCR analysis; assay type: functional, organism-based; set-up: dose 100 mg/kg
Vaccinia virus WR [13] = assay: Antiviral activity against Vaccinia virus WR ATCC VR-1354 infected through percutaneous route in BALB/c mouse assessed as reduction of viral load in blood at 100 mg/kg, po qd measured after 5 days postinfection by RT-PCR analysis relative to control; assay type: functional
Vaccinia virus WR [14] = assay: Antiviral activity against Vaccinia virus WR ATCC VR-1354 infected through dermal scarification route in BALB/c mouse assessed as reduction of viral load in spleen at 100 mg/kg, po qd measured after 14 days postinfection by RT-PCR analysis relative to control; assay type: functional, organism-based; set-up: dose 100 mg/kg
Vaccinia virus WR [15] = assay: Antiviral activity against Vaccinia virus WR ATCC VR-1354 infected through percutaneous route in BALB/c mouse assessed as inhibition of virus dissemination in blood at 100 mg/kg, po qd for 3 to 14 days by RT-PCR analysis; assay type: functional, organism-based; set-up: dose 100 mg/kg
Vaccinia virus WR [16] = assay: Antiviral activity against Vaccinia virus WR ATCC VR-1354 infected through intravenous route in BALB/c mouse assessed as protection against virus-induced satellite lesion formation on tails at 100 mg/kg, po qd measured after 6 days postinfection; assay type: functional, organism-based; set-up: dose 100 mg/kg
Vaccinia virus WR [17] = assay: Antiviral activity against Vaccinia virus WR ATCC VR-1354 infected through dermal scarification route in BALB/c mouse assessed as protection against virus-induced systemic disease symptoms at 100 mg/kg, po qd measured after 9 days postinfection; assay type: functional, organism-based; set-up: dose 100 mg/kg
Vaccinia virus WR [18] = assay: Antiviral activity against Vaccinia virus WR ATCC VR-1354 infected through intraperitoneal route in BALB/c mouse assessed as reduction of viral load in spleen at 100 mg/kg, po qd measured after 5 days postinfection by RT-PCR analysis relative to control; assay type: functional, organism-based; set-up: dose 100 mg/kg
Vaccinia virus WR [19] = assay: Antiviral activity against Vaccinia virus WR ATCC VR-1354 infected through subcutaneous route in BALB/c mouse assessed as protection against virus-induced satellite lesion formation on tails at 100 mg/kg, po qd measured after 6 days postinfection; assay type: functional, organism-based; set-up: dose 100 mg/kg
Vaccinia virus WR [20] = assay: Antiviral activity against Vaccinia virus WR ATCC VR-1354 infected through dermal scarification route in BALB/c mouse assessed as reduction of viral load in lung at 100 mg/kg, po qd measured after 14 days postinfection by RT-PCR analysis relative to control; assay type: functional, organism-based; set-up: dose 100 mg/kg
Vaccinia virus WR [21] = assay: Antiviral activity against Vaccinia virus WR ATCC VR-1354 infected through intravenous route in BALB/c mouse assessed as reduction of viral load in brain at 100 mg/kg, po qd measured after 3 days postinfection by RT-PCR analysis relative to control; assay type: functional
Vaccinia virus WR [22] = assay: Antiviral activity against Vaccinia virus WR ATCC VR-1354 infected through percutaneous route in BALB/c mouse assessed as reduction of viral load in brain at 100 mg/kg, po qd measured after 13 days postinfection by RT-PCR analysis relative to control; assay type: functional, organism-based; set-up: dose 100 mg/kg
Vaccinia virus WR [23] = assay: Antiviral activity against Vaccinia virus WR ATCC VR-1354 infected through intraperitoneal route in BALB/c mouse assessed as reduction of viral load in blood at 100 mg/kg, po qd measured after 5 days postinfection by RT-PCR analysis relative to control; assay type: functional, organism-based; set-up: dose 100 mg/kg
Vaccinia virus WR [24] = assay: Antiviral activity against Vaccinia virus WR ATCC VR-1354 infected through percutaneous route in BALB/c mouse assessed as protection against virus-induced death at 100 mg/kg, po qd administered 4 days after postinfection measured on day 6; assay type: functional, organism-based; set-up: dose 100 mg/kg
Vaccinia virus WR [25] = assay: Antiviral activity against Vaccinia virus WR ATCC VR-1354 infected through dermal scarification route in ACAM2000 vaccinated BALB/c mouse assessed as reduction of swab virus titers at 100 mg/kg, po qd measured after 7 days postinfection by RT-PCR analysis relative to control; assay type: functional
Vaccinia virus WR [26] = assay: Antiviral activity against Vaccinia virus WR ATCC VR-1354 infected through dermal scarification route in BALB/c mouse assessed as protection against virus-induced satellite lesion formation on tails at 100 mg/kg, po qd measured after 6 days postinfection; assay type: functional, organism-based; set-up: dose 100 mg/kg

With `O=C(NN1C(=O)[C@@H]2[C@@H]3C=C[C@@H]([C@H]4C[C@@H]34)[C@@H]2C1=O)c1ccc(C(F)(F)F)cc1` [TECOVIRIMAT] the Activity (Vaccinia virus WR [1]) was greater than 70%, the “fold change (FC)” value (Vaccinia virus WR [2]) was 17 and the “fold change (FC)” value (Vaccinia virus WR [3]) was 30. For the same molecule, the Activity (Vaccinia virus WR [4]) was “Active”, the Activity (Vaccinia virus WR [5]) was “Active” and the Activity (Vaccinia virus WR [6]) was “Active”. The Activity (Vaccinia virus WR [7]) was “Active”, the “fold change (FC)” value (Vaccinia virus WR [8]) was 3.5 and the “fold change (FC)” value (Vaccinia virus WR [9]) was 13. The Activity (Vaccinia virus WR [10]) was “inactive”, the Activity (Vaccinia virus WR [11]) was “Active” and the Activity (Vaccinia virus WR [12]) was “inactive”. For the same molecule, the “fold change (FC)” value (Vaccinia virus WR [13]) was 90, the Activity (Vaccinia virus WR [14]) was “Active” and the Activity (Vaccinia virus WR [15]) was “Active”. The Activity (Vaccinia virus WR [16]) was “Active”, the Activity (Vaccinia virus WR [17]) was “Active” and the Activity (Vaccinia virus WR [18]) was “Active”. For the same molecule, the Activity (Vaccinia virus WR [19]) was “Active”, the Activity (Vaccinia virus WR [20]) was “Active” and the “fold change (FC)” value (Vaccinia virus WR [21]) was 23. The Activity (Vaccinia virus WR [22]) was “Active”, the Activity (Vaccinia virus WR [23]) was “Active” and the Activity (Vaccinia virus WR [24]) was “inactive”. For the same molecule, the “fold change (FC)” value (Vaccinia virus WR [25]) was 53 and the Activity (Vaccinia virus WR [26]) was “Active”.

Reference: ChEMBL document CHEMBL1649270, “ST-246 inhibits in vivo poxvirus dissemination, virus shedding, and systemic disease manifestation” (2009)
